Experimental data taken from publication PMC6886798, “Expression of myeloid Src-family kinases is associated with poor prognosis in AML and influences Flt3-ITD kinase inhibitor acquired resistance” (PLoS ONE, 2019).

Experiments:
Test in all cases: KINOMEscan
Format in all cases: binding
Settings in all cases: 1.0 µM
HIPK4 = target: T1, HIPK4 (Homo sapiens, UniProt Q8NE63)
T1 construct: purchased Eurofins/DiscoverX KINOMEscan scanMAX
Procedure: (§1) Kinase retention to the immobilized ligand is then measured using quantitative real-time PCR for each kinase-specific DNA barcode.

TBK1 = target: T2, TBK1 (Homo sapiens, UniProt Q9UHD2)
T2 construct: purchased Eurofins/DiscoverX KINOMEscan scanMAX
Procedure: as §1

KIT = target: T3, KIT (Homo sapiens, UniProt P10721)
T3 construct: purchased Eurofins/DiscoverX KINOMEscan scanMAX
T3 sequence (P10721 26-976): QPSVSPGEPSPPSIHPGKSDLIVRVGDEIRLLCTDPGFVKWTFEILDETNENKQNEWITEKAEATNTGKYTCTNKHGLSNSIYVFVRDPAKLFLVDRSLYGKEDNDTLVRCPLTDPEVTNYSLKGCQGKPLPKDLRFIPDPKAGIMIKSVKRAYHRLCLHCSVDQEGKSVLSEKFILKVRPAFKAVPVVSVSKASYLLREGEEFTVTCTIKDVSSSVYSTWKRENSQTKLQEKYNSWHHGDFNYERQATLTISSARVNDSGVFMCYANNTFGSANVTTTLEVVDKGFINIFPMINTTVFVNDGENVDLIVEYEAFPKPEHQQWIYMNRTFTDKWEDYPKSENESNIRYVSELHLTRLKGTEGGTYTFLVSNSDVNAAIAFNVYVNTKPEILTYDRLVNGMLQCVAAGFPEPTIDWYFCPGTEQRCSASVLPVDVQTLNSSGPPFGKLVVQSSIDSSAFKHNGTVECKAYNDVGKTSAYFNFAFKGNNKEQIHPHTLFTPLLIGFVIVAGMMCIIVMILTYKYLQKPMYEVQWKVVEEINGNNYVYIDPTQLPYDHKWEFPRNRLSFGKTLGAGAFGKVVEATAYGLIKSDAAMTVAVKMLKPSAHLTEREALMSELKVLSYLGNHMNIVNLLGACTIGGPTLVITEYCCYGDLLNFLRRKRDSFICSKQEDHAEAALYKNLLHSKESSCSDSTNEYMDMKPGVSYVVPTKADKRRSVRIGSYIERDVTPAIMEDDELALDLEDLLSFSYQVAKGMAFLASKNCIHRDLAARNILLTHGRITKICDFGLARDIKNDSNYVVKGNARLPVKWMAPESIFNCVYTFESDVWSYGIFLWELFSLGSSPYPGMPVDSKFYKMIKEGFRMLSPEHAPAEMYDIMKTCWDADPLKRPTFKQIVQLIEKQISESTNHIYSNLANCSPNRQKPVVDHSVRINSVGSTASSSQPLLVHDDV
Procedure: as §1

ERBB3 = target: T4, ERBB3 (Homo sapiens, UniProt P21860)
T4 construct: purchased Eurofins/DiscoverX KINOMEscan scanMAX
Procedure: as §1

CAMKK2 = target: T5, CAMKK2 (Homo sapiens, UniProt Q96RR4)
T5 construct: purchased Eurofins/DiscoverX KINOMEscan scanMAX
Procedure: as §1

YANK3 = target: T6, YANK3 (Homo sapiens, UniProt Q86UX6)
T6 construct: purchased Eurofins/DiscoverX (KINOMEscan scanMAX service)
Procedure: as §1

PKN2 = target: T7, PKN2 (Homo sapiens, UniProt Q16513)
T7 construct: purchased Eurofins/DiscoverX KINOMEscan scanMAX
Procedure: as §1

BMPR1B = target: T8, BMPR1B (Homo sapiens, UniProt O00238)
T8 construct: purchased Eurofins/DiscoverX KINOMEscan scanMAX
Procedure: as §1

MET = target: T9, MET (Homo sapiens, UniProt P08581)
T9 construct: purchased Eurofins/DiscoverX KINOMEscan scanMAX
Procedure: as §1

MARK3 = target: T10, MARK3 (Homo sapiens, UniProt P27448)
T10 construct: purchased Eurofins/DiscoverX KINOMEscan scanMAX
Procedure: as §1

[1] = target: T11, ABL1(F317L)-nonphosphorylated (Homo sapiens, UniProt P00519, F317L)
T11 construct: purchased Eurofins/DiscoverX KINOMEscan scanMAX
T11 sequence (P00519 whole entry F317L): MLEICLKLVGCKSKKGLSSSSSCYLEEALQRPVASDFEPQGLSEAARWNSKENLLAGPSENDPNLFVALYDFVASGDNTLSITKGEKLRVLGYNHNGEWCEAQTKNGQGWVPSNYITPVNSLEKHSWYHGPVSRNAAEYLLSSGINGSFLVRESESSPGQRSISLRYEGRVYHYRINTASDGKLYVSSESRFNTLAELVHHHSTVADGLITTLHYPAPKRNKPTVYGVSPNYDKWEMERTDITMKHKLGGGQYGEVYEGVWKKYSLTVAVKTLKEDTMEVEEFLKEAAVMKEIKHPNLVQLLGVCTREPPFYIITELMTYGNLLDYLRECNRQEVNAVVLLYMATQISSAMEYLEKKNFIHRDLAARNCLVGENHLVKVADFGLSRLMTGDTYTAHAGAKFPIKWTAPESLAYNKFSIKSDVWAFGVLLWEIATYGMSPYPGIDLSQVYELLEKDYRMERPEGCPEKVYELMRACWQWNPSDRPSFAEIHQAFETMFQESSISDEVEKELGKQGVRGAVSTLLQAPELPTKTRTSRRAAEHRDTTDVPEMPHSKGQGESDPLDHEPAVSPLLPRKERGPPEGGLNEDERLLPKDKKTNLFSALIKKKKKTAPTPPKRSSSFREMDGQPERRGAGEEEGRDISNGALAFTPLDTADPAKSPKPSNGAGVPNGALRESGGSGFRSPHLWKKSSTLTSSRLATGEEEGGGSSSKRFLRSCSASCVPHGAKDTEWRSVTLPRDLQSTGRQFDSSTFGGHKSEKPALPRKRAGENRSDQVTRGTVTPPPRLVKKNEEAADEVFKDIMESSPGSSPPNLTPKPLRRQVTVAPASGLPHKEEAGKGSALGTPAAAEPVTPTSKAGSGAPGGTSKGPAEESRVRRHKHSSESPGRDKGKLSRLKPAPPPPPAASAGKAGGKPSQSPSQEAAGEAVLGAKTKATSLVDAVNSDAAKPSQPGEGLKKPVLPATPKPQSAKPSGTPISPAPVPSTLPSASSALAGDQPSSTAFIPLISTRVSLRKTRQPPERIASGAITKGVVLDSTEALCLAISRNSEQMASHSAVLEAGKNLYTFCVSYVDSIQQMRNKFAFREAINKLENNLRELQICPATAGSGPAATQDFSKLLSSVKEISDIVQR
Procedure: as §1

PRKD2 = target: T12, PRKD2 (Homo sapiens, UniProt Q9BZL6)
T12 construct: purchased Eurofins/DiscoverX KINOMEscan scanMAX
T12 sequence (Q9BZL6 whole entry): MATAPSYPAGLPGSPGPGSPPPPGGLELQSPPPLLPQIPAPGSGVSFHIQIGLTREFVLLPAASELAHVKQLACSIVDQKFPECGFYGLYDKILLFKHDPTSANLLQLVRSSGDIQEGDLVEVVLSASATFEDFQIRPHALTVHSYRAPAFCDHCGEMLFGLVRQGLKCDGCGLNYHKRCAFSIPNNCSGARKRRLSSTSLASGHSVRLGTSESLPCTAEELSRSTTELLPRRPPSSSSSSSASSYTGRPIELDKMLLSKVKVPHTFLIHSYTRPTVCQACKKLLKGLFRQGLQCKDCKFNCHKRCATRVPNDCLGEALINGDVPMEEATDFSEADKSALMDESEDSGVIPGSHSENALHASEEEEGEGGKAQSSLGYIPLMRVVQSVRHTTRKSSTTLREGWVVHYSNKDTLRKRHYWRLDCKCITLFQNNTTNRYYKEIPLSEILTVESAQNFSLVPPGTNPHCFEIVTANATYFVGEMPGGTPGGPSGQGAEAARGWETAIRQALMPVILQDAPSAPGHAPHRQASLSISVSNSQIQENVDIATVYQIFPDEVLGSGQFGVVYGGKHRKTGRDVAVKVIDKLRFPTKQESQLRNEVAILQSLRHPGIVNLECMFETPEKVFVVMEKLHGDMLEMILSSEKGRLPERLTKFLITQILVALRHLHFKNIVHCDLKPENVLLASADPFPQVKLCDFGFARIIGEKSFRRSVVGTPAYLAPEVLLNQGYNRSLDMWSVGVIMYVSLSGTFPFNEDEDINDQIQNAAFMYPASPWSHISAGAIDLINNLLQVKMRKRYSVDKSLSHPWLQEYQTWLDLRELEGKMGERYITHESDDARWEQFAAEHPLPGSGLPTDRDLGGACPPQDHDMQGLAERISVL
Procedure: as §1

STK39 = target: T13, STK39 (Homo sapiens, UniProt Q9UEW8)
T13 construct: purchased Eurofins/DiscoverX KINOMEscan scanMAX
Procedure: as §1

STK35 = target: T14, STK35 (Homo sapiens, UniProt Q8TDR2)
T14 construct: purchased Eurofins/DiscoverX KINOMEscan scanMAX
Procedure: as §1

TESK1 = target: T15, TESK1 (Homo sapiens, UniProt Q15569)
T15 construct: purchased Eurofins/DiscoverX KINOMEscan scanMAX
Procedure: as §1

MYO3A = target: T16, MYO3A (Homo sapiens, UniProt Q8NEV4)
T16 construct: purchased Eurofins/DiscoverX KINOMEscan scanMAX
Procedure: as §1

PLK4 = target: T17, PLK4 (Homo sapiens, UniProt O00444)
T17 construct: purchased Eurofins/DiscoverX KINOMEscan scanMAX
Procedure: as §1

AURKB = target: T18, AURKB (Homo sapiens, UniProt Q96GD4)
T18 construct: purchased Eurofins/DiscoverX KINOMEscan scanMAX
T18 sequence (Q96GD4 whole entry): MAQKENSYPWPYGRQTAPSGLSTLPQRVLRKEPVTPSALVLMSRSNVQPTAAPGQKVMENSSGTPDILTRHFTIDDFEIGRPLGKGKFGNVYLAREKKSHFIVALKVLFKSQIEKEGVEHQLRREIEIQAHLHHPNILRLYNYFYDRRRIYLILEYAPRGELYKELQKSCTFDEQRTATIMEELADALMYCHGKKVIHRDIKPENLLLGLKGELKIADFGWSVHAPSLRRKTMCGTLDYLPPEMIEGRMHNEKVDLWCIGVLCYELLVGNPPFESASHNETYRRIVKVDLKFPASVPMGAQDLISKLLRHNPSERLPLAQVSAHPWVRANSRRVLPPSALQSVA
Procedure: as §1

TTK = target: T19, TTK (Homo sapiens, UniProt P33981)
T19 construct: DNA tag (qPCR barcode); purchased Eurofins/DiscoverX KINOMEscan scanMAX
Procedure: as §1

SRMS = target: T20, SRMS (Homo sapiens, UniProt Q9H3Y6)
T20 construct: purchased Eurofins/DiscoverX KINOMEscan scanMAX
T20 sequence (Q9H3Y6 whole entry): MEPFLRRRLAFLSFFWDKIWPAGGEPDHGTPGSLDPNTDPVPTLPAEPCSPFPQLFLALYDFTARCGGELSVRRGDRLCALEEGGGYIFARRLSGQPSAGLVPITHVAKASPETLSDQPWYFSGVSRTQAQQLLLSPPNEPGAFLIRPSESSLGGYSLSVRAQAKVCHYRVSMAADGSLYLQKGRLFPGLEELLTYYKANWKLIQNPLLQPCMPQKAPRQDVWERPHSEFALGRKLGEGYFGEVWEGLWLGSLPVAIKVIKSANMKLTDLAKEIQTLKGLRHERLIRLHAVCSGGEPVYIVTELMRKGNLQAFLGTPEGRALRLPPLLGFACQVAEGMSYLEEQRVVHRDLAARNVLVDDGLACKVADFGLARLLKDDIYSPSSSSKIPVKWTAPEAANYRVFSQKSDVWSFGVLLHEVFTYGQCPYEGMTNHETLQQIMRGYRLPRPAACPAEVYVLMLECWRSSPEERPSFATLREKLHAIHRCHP
Procedure: as §1

PIP5K1A = target: T21, PIP5K1A (Homo sapiens, UniProt Q99755)
T21 construct: purchased Eurofins/DiscoverX KINOMEscan scanMAX
Procedure: as §1

STK36 = target: T22, STK36 (Homo sapiens, UniProt Q9NRP7)
T22 construct: purchased Eurofins/DiscoverX KINOMEscan scanMAX
Procedure: as §1

MLCK = target: T23, MLCK (Homo sapiens, UniProt Q32MK0)
T23 construct: purchased Eurofins/DiscoverX KINOMEscan scanMAX
T23 sequence (Q32MK0 whole entry): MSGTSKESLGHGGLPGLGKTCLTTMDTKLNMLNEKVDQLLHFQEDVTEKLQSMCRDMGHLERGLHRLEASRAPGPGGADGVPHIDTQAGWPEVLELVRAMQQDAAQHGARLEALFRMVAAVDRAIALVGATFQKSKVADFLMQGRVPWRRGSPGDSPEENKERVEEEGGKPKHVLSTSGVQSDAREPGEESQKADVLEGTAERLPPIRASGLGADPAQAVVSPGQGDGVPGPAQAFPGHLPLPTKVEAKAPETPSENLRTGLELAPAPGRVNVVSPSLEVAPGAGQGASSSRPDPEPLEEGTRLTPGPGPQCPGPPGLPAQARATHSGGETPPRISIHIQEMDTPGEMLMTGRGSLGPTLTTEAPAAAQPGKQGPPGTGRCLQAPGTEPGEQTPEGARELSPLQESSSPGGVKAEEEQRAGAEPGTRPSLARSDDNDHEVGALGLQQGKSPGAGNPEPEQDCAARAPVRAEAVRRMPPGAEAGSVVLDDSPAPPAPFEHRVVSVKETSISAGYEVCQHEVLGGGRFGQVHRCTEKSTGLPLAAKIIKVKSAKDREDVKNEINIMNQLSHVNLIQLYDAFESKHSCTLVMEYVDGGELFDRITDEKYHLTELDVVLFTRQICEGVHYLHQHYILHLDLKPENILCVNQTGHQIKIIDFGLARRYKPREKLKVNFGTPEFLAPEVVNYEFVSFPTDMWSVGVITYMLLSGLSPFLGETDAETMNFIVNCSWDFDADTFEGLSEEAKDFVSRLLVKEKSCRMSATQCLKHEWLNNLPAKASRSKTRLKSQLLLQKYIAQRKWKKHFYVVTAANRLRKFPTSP
Procedure: as §1

CTK = target: T24, CTK (Homo sapiens, UniProt P42679)
T24 construct: purchased Eurofins/DiscoverX KINOMEscan scanMAX
Procedure: as §1

AMPK-alpha2 = target: T25, AMPK-alpha2 (Homo sapiens, UniProt P54646)
T25 construct: purchased Eurofins/DiscoverX KINOMEscan scanMAX
Procedure: as §1

EPHB1 = target: T26, EPHB1 (Homo sapiens, UniProt P54762)
T26 construct: purchased Eurofins/DiscoverX KINOMEscan scanMAX
Procedure: as §1

BMX = target: T27, BMX (Homo sapiens, UniProt P51813)
T27 construct: purchased Eurofins/DiscoverX KINOMEscan scanMAX
Procedure: as §1

TGFBR2 = target: T28, TGFBR2 (Homo sapiens, UniProt P37173)
T28 construct: purchased Eurofins/DiscoverX KINOMEscan scanMAX
Procedure: as §1

KIT(D816H) = target: T29, KIT(D816H) (Homo sapiens, UniProt P10721, D816H)
T29 construct: purchased Eurofins/DiscoverX KINOMEscan scanMAX
Procedure: as §1

NDR2 = target: T30, NDR2 (Homo sapiens, UniProt Q9Y2H1)
T30 construct: purchased Eurofins/DiscoverX KINOMEscan scanMAX
Procedure: as §1

CDKL2 = target: T31, CDKL2 (Homo sapiens, UniProt Q92772)
T31 construct: purchased Eurofins/DiscoverX KINOMEscan scanMAX
Procedure: as §1

KIT(V559D,V654A) = target: T32, KIT(V559D,V654A) (Homo sapiens, UniProt P10721, V559D/V654A)
T32 construct: purchased Eurofins/DiscoverX KINOMEscan scanMAX
T32 sequence (P10721 26-976 V559D/V654A): as the sequence (P10721 26-976) above, with V534D, V629A counted along it
Procedure: as §1

NEK2 = target: T33, NEK2 (Homo sapiens, UniProt P51955)
T33 construct: purchased Eurofins/DiscoverX KINOMEscan scanMAX
Procedure: as §1

FLT3 = target: T34, FLT3 (Homo sapiens, UniProt P36888)
T34 construct: purchased Eurofins/DiscoverX KINOMEscan scanMAX
Procedure: as §1

LKB1 = target: T35, LKB1 (Homo sapiens, UniProt Q15831)
T35 construct: purchased Eurofins/DiscoverX KINOMEscan scanMAX
Procedure: as §1

SYK = target: T36, SYK (Homo sapiens, UniProt P43405)
T36 construct: purchased Eurofins/DiscoverX KINOMEscan scanMAX
Procedure: as §1

ICK = target: T37, ICK (Homo sapiens, UniProt Q9UPZ9)
T37 construct: purchased Eurofins/DiscoverX KINOMEscan scanMAX
Procedure: as §1

DCAMKL3 = target: T38, DCAMKL3 (Homo sapiens, UniProt Q9C098)
T38 construct: purchased Eurofins/DiscoverX KINOMEscan scanMAX
Procedure: as §1

ERBB2 = target: T39, ERBB2 (Homo sapiens, UniProt P04626)
T39 construct: purchased Eurofins/DiscoverX KINOMEscan scanMAX
Procedure: as §1

CSNK1A1L = target: T40, CSNK1A1L (Homo sapiens, UniProt Q8N752)
T40 construct: purchased Eurofins/DiscoverX KINOMEscan scanMAX
T40 sequence (Q8N752 whole entry): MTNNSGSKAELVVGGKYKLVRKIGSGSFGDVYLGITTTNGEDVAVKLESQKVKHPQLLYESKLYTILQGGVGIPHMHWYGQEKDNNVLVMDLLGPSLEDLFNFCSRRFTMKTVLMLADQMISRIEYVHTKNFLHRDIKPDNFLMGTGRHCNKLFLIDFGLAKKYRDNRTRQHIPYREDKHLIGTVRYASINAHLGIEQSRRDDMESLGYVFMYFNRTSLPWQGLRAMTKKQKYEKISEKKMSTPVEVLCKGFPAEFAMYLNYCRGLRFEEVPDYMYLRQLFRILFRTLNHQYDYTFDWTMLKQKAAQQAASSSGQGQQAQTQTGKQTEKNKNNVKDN
Procedure: as §1

KIT(L576P) = target: T41, KIT(L576P) (Homo sapiens, UniProt P10721, L576P)
T41 construct: purchased Eurofins/DiscoverX KINOMEscan scanMAX
T41 sequence (P10721 26-976 L576P): as the sequence (P10721 26-976) above, with L551P counted along it
Procedure: as §1

[2] = target: T42, JAK1(JH1domain-catalytic) (Homo sapiens, UniProt P23458)
T42 construct: JAK1(JH1domain-catalytic); purchased Eurofins/DiscoverX KINOMEscan scanMAX
Procedure: as §1

For `CN1CCN(C2CCC(n3cc(-c4ccc(Oc5ccccc5)cc4)c4c(N)ncnc43)CC2)CC1` (stereo not drawn) [A-419259], the “% Control” value (HIPK4) was 63%, the “% Control” value (TBK1) was 100% and the “% Control” value (KIT) was 0.15%. The “% Control” value (ERBB3) was 0.2%, the “% Control” value (CAMKK2) was 100% and the “% Control” value (YANK3) was 100%. For the same compound, the “% Control” value (PKN2) was 100%, the “% Control” value (BMPR1B) was 92% and the “% Control” value (MET) was 58%. For the same compound, the “% Control” value (MARK3) was 83%, the “% Control” value [1] was 4.7% and the “% Control” value (PRKD2) was 63%. The “% Control” value (STK39) was 100%, the “% Control” value (STK35) was 27% and the “% Control” value (TESK1) was 95%. For the same compound, the “% Control” value (MYO3A) was 2.7%, the “% Control” value (PLK4) was 100% and the “% Control” value (AURKB) was 100%. For the same compound, the “% Control” value (TTK) was 3.5%, the “% Control” value (SRMS) was 0% and the “% Control” value (PIP5K1A) was 100%. For the same compound, the “% Control” value (STK36) was 18%, the “% Control” value (MLCK) was 66% and the “% Control” value (CTK) was 89%. For the same compound, the “% Control” value (AMPK-alpha2) was 42%, the “% Control” value (EPHB1) was 96% and the “% Control” value (BMX) was 30%. For the same compound, the “% Control” value (TGFBR2) was 100%, the “% Control” value (KIT(D816H)) was 40% and the “% Control” value (NDR2) was 80%. For the same compound, the “% Control” value (CDKL2) was 70%, the “% Control” value (KIT(V559D,V654A)) was 18% and the “% Control” value (NEK2) was 81%. For the same compound, the “% Control” value (FLT3) was 0.65%, the “% Control” value (LKB1) was 100% and the “% Control” value (SYK) was 100%. For the same compound, the “% Control” value (ICK) was 97%, the “% Control” value (DCAMKL3) was 100% and the “% Control” value (ERBB2) was 2.7%. For the same compound, the “% Control” value (CSNK1A1L) was 64%, the “% Control” value (KIT(L576P)) was 0% and the “% Control” value [2] was 99%.
